Data as given in patent US10829473B2, “Modulators of the cystic fibrosis transmembrane conductance regulator protein and methods of use” (AbbVie Overseas S.Á.R.L., priority 2017, dated 2020).
pEC50: −log10 of the molar value. Where two headings read alike, the source gives them in different places. Marks after values point to notes of the source that are not given here.

Target: T1, F508delCFTR (Homo sapiens, UniProt P13569, DEL508-508)
T1 construct: expressed in transfected cells; host or cells: CFBE41o- human lung derived epithelial cells (CFBE41o-F508delCFTR-HRP), doxycycline-inducible
T1 sequence (P13569 with tags, fused parts or gaps DEL508-508): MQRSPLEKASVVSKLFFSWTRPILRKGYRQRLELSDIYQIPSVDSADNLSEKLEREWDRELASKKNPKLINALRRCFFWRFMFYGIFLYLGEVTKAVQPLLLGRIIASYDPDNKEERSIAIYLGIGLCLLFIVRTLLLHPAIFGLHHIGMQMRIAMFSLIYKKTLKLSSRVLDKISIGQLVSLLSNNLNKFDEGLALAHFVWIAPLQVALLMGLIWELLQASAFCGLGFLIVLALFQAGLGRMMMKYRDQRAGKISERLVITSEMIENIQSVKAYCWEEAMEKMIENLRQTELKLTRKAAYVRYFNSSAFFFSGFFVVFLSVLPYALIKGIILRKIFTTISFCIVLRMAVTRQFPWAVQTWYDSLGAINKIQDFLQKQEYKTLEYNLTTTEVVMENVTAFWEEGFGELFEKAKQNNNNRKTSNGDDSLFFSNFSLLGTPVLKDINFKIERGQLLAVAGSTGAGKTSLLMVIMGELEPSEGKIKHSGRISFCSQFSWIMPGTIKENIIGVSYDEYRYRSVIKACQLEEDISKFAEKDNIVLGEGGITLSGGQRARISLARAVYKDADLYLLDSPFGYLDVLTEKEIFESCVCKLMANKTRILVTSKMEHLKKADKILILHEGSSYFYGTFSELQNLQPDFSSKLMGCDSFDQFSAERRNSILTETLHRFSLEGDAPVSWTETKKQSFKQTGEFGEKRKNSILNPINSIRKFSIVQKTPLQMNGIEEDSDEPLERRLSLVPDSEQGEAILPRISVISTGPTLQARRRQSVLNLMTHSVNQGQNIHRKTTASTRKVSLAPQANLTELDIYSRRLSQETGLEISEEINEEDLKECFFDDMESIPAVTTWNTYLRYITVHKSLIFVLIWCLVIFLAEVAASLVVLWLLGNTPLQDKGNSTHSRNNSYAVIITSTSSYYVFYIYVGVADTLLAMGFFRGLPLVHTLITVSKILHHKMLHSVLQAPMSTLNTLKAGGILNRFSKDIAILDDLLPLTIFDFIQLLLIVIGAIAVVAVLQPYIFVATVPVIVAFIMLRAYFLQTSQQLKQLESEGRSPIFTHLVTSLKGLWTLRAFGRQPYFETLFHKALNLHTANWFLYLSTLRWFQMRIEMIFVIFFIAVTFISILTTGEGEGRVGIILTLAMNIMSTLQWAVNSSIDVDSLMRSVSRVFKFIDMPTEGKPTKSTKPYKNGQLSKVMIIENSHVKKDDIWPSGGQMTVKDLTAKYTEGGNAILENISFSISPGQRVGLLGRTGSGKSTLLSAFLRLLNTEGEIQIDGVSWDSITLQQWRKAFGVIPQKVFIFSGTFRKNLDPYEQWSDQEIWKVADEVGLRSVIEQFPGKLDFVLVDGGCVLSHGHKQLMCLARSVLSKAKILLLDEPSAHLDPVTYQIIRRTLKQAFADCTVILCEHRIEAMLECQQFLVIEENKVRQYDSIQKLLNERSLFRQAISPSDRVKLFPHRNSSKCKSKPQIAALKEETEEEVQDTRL
Assay: Cell Surface Expression-Horse Radish Peroxidase (CSE-HRP) Assay;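 as to EC50 (with co-corrector): co-corrector chromenyl benzoic acid corrector at 2 or 3 µM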
Type: cell-based
Conditions: for Maximum % activity (with co-corrector) / Emax: maximum at any tested concentration; for Emax: read-out: Maximum % activity (without co-corrector)
Method: A cellular assay for measuring the F508delCFTR cell surface expression after correction with test compounds either without or with a co-corrector (2 μM of 3-[(2R,4R)-4-({[1-(2,2-difluoro-1,3-benzodioxol-5-yl)cyclopropyl]carbonyl}amino)-7-methoxy-3,4-dihydro-2H-chromen-2-yl]benzoic acid), was developed in human lung derived epithelial cell line (CFBE4lo−) (Veit G et al, (2012) Mol Biol Cell. 23(21): 4188-4202). The development was achieved by expressing the F508delCFTR mutation along with a horseradish peroxidase (HRP) in the fourth exofacial loop, and then measuring the HRP activity using luminescence readout from these cells, CFBE410-F508delCFTR-HRP, that were incubated overnight with the test corrector compounds, either without or with the co-corrector. For this primary assay, the CFBE410-F508delCFTR-HRP cells were plated in 384-well plates (Greiner Bio-one; Cat 781080) at 4,000 cells/well along with 0.5 μg/mL doxycycline to induce the F508delCFTR-HRP expression and further incubated at 37° C., 5% CO2 for 68-72 hours. The test compounds were then added either without or with a co-corrector at the required concentrations and further incubated for 18-24 hours at 33° C. The highest concentration tested was 20 μM or 30 μM (GI-1 to GIII-36) with an 8-point concentration response curve using a 3-fold dilution in both the test compound without or with the co-corrector. Three replicate plates were run to determine one EC50. All plates contained negative controls (dimethyl sulfoxide, DMSO) and positive control (2 μM or 3 μM (GI-1 to GIII-36) of 3-[(2R,4R)-4-({[1-(2,2-difluoro-1,3-benzodioxol-5-yl)cyclopropyl]carbonyl}amino)-7-methoxy-3,4-dihydro-2H-chromen-2-yl]benzoic acid) as well as on-plate concentration response of the positive control. Post incubation, the plates were washed 5× times with Dulbecco's phosphate buffered saline (DPBS), followed by the addition of the HRP substrate, luminol (50 4), and measuring the HRP activity using luminescence readout on EnVision® Multilabel Plate Reader (Perkin Elmer; product number 2104-0010). The raw counts from the experiment were analyzed using Accelrys® Assay Explorer v3.3.
Z′ greater than 0.5 was used as passing quality control criteria for the plates.
The Z′ is defined as: 1−[3*SDPositve Control+3*SDNegative Control/Absolute(MeanPositive Control−MeanNegative Control)] wherein “SD” is standard deviation.
The % activity measured at each of the 8 test concentrations of the test compound added either without or with a co-corrector (2 μM or 3 μM (GI-1 to GIII-36) of 3-[(2R,4R)-4-({[1-(2,2-difluoro-1,3-benzodioxol-5-yl)cyclopropyl]carbonyl}amino)-7-methoxy-3,4-dihydro-2H-chromen-2-yl]benzoic acid) was normalized to the on-plate positive control using the following formulae: % activity (Test compound without co-corrector)=[(test compound without co-corrector response DMSO response)/(positive control response DMSO response)]*100 % activity (Test compound with co-corrector)=[(test compound with co-corrector response DMSO response)/(positive control response DMSO response)]*100
The maximum % activity achieved for the test compound either without or with a co-corrector at any tested concentration is presented in Table 6 along with the respective EC50's calculated using the following general sigmoidal curve with variable Hill slope equation (described as Model 42 in the Accelrys® Assay Explorer v3.3 software): y=(a−d)/(1+(x/c)b)+d
General sigmoidal curve with concentration, response, top, bottom, EC50 and Hill slope. This model describes a sigmoidal curve with an adjustable baseline, a. The equation can be used to fit curves where response is either increasing or decreasing with respect to the independent variable, “x”.
“x” is a concentration of drug under test.
“a” is the maximum response, and “d” is the minimum response
“c” is the inflection point (EGO for the curve. That is, “y” is halfway between the lower and upper asymptotes when x=c.
“b” is the slope-factor or Hill coefficient. […]

[1] = test compound alone, without co-corrector, read-out: EC50 (without co-corrector)
[2] = with co-corrector, read-out: EC50 (with co-corrector)
[3] = test compound with co-corrector
[4] = test compound with co-corrector, read-out: EC50 (with co-corrector)
[5] = test compound without co-corrector
[6] = test compound without co-corrector, read-out: EC50 (without co-corrector)

Structure (SMILES)	pEC50 [1]	Maximum % activity (with co-corrector) (with co-corrector)	pEC50 [2]	Emax (without co-corrector) [%]	Maximum % activity (with co-corrector) [3]	pEC50 [4]	EC50 (without co-corrector) [5]	Emax [5] [%]	EC50 (with co-corrector) [3]	pEC50 [6]
CO[C@@H](C)COc1ccc(C)cc1C1(C(=O)NS(=O)(=O)c2cccc3ncccc23)CC1 [Example I-113, 1-{2-[(2S)-2-methoxypropoxy]-5-methylphenyl}-N-(quinoline-5-sulfonyl)cyclopropane-1-carboxamide]	> 5.52	+++ (≥350)	> 5.52	> 150						
COc1ccc(C(C)(C)C)cc1C1(C(=O)NS(=O)(=O)c2cccc3c2CCCN3)CC1 [Example I-39, 1-(5-tert-butyl-2-methoxyphenyl)-N-(1,2,3,4-tetrahydroquinoline-5-sulfonyl)cyclopropane-1-carboxamide]	> 5.52	+++ (≥350)	> 5.52	> 150						
CCc1ccc(O[C@H](C)COC)c(C2(C(=O)NS(=O)(=O)c3cccc4nc(C)ccc34)CC2)c1 [Example I-112, 1-(5-ethyl-2-{[(2R)-1-methoxypropan-2-yl]oxy}phenyl)-N-(2-methylquinoline-5-sulfonyl)cyclopropane-1-carboxamide]	> 5.52	+++ (≥350)	> 5.52	> 150						
CC(C)Oc1ccc(C2(C(=O)NS(=O)(=O)c3cccc4ncccc34)CC2)c(N(C)C)n1 [GII-51, 1-{2-(dimethylamino)-6-[(propan-2-yl)oxy]pyridin-3-yl}-N-(quinoline-5-sulfonyl)cyclopropane-1-carboxamide]					++ (≥150 and <350)	5.00 to 5.52	++^a	50 to 150		
COc1ccc(C2(OC)CCC2)cc1C1(C(=O)NS(=O)(=O)c2cccc3nc(C)ccc23)CC1 [II-100]	5.00 to 5.52	+++ (≥350)	> 5.52	> 150						
O=C(NS(=O)(=O)c1cccc2ncccc12)C1(c2cc(C3CC3)cnc2C(F)(F)F)CC1 [GIII-10]					++ (≥150 and <350)		++^a	50 to 150	++^a	
Cc1cnc(N2CCOCC2)cc1C1(C(=O)NS(=O)(=O)c2cccc3ncccc23)CC1 [GII-8, 1-[5-methyl-2-(morpholin-4-yl)pyridin-4-yl]-N-(quinoline-5-sulfonyl)cyclopropane-1-carboxamide]					++ (≥150 and <350)			< 50	++^a	< 5.00
COc1ncc(C(F)(F)F)cc1C1(C(=O)NS(=O)(=O)c2cccc3cnn(C)c23)CC1 [Example III-97, 1-[2-methoxy-5-(trifluoromethyl)pyridin-3-yl]-N-(1-methyl-1H-indazole-7-sulfonyl)cyclopropane-1-carboxamide]	5.00 to 5.52	+++ (≥350)	5.00 to 5.52	> 150						
CCc1cnc(N2CCC(OC)CC2)c(C2(C(=O)NS(=O)(=O)c3cccc4[nH]ccc34)CC2)c1 [GII-58, 1-[5-ethyl-2-(4-methoxypiperidin-1-yl)pyridin-3-yl]-N-(1H-indole-4-sulfonyl)cyclopropane-1-carboxamide]					+++ (≥350)	5.00 to 5.52		> 150		5.00 to 5.52
CN(C(=O)C1(c2ccc(Cl)cc2Cl)CC1)S(=O)(=O)c1ccc(Cl)cc1 [Example III-19, N-(4-chlorobenzene-1-sulfonyl)-1-(2,4-dichlorophenyl)-N-methylcyclopropane-1-carboxamide]	< 5.00	+ (<150)	< 5.00	< 50						
COc1ccc(C2CC2)c(C)c1C1(C(=O)NS(=O)(=O)c2cccc3ncccc23)CC1 [Example I-48, 1-(3-cyclopropyl-6-methoxy-2-methylphenyl)-N-(quinoline-5-sulfonyl)cyclopropane-1-carboxamide]	> 5.52	+++ (≥350)	> 5.52	> 150						
Cc1cnc(N2CCCC2)cc1C1(C(=O)NS(=O)(=O)c2cccc3ncccc23)CC1 [GII-9, 1-[5-methyl-2-(pyrrolidin-1-yl)pyridin-4-yl]-N-(quinoline-5-sulfonyl)cyclopropane-1-carboxamide]					++ (≥150 and <350)	5.00 to 5.52		50 to 150		5.00 to 5.52
COc1cnc(OCC(C)C)c(C2(C(=O)NS(=O)(=O)c3cccc4[nH]ccc34)CC2)c1 [Example GI-78, N-(1H-indole-4-sulfonyl)-1-[5-methoxy-2-(2-methylpropoxy)pyridin-3-yl]cyclopropane-1-carboxamide]					+++ (≥350)	> 5.52		> 150		> 5.52
CC(C)Oc1ccc(C2CCC2)nc1C1(C(=O)NS(=O)(=O)c2cccc3ncccc23)CC1 [Example GI-39, 1-{6-cyclobutyl-3-[(propan-2-yl)oxy]pyridin-2-yl}-N-(quinoline-5-sulfonyl)cyclopropane-1-carboxamide]					+++ (≥350)	> 5.52		> 150		> 5.52
Cc1ccc(OC(F)F)c(C2(C(=O)NS(=O)(=O)c3cccc4nc(C)ccc34)CC2)c1 [II-101]	> 5.52	+++ (≥350)	> 5.52	> 150						
[2H]C1(c2ccc(OC)c(C3(C(=O)NS(=O)(=O)c4cccc5ncccc45)CC3)c2)COC1 [Example III-129, 1-{2-methoxy-5-[(3-^2H)oxetan-3-yl]phenyl}-N-(quinoline-5-sulfonyl)cyclopropane-1-carboxamide]	5.00 to 5.52	+++ (≥350)	5.00 to 5.52	> 150						
O=C(NS(=O)(=O)Cc1ccccc1)C1(c2ccc(Cl)cc2)CC1 [Example III-114, 1-(4-chlorophenyl)-N-(phenylmethanesulfonyl)cyclopropane-1-carboxamide]	< 5.00	+ (<150)	5.00 to 5.52	< 50						
COc1cccc(C2CCC2)c1C1(C(=O)NS(=O)(=O)c2cccc3ncccc23)CC1 [Example I-51, 1-(2-cyclobutyl-6-methoxyphenyl)-N-(quinoline-5-sulfonyl)cyclopropane-1-carboxamide]	> 5.52	+++ (≥350)	> 5.52	> 150						
COc1cc(OC(C)C)c(C2(C(=O)NS(=O)(=O)c3cccc4nc(C)ccc34)CC2)cn1 [Example GI-18, 1-{6-methoxy-4-[(propan-2-yl)oxy]pyridin-3-yl}-N-(2-methylquinoline-5-sulfonyl)cyclopropane-1-carboxamide]	5.00 to 5.52	+++ (≥350)	> 5.52	> 150						
